“Also recorded” adds a separate entry of the source. Residues, ends and D or L forms follow the SMILES beside them.
Tests used:
[1] = system: transgenic CD4^+ thymocytes; experiment: Positive selection of CD4^+ thymocytes after peptide injection into TCR^TgTCRα^−H2-M^−Ii^− mice (flow cytometry of thymus); assay type: in vivo, mouse; details: for positive selection of transgenic thymocytes: i.p., non-deleting dose (20 μg); for percentage of CD4^+ single positive cells (thymus): 3 days after peptide injection; for effect on thymic selection: exogenous peptides without agonist properties
Text: Mice. The TCR genes were cloned from T cell hybridoma specific for analogs of the PCC(43-58) peptide and expressed in VA-hCD2 cassette (Ignatowicz et al., 1997; Kraj et al., 2001; Zhumabekov et al., 1995). All TCR transgenic mice were made by co-microinjection of the respective […] and TCRβ constructs into fertilized eggs of F1 (C57BL/6×CBA/Ca) mice. TCR Tg mice were crossed to C57B16/TCRα^− (Jackson Laboratory, ME) mice and to mice deficient in H2-M (kindly provided by E. Bikoff and R. Germain) and Ii (kindly provided by L. van Kaer) to obtain TCR^TgTCRα^− H2-M^−Ii^−.
(§1) Flow cytometry analysis. Monoclonal antibodies specific for CD4(RM4-5), CD8(53-6.7), VβB8(F23.1), CD69(H1.2F3), CD44(IM7) and CD62L(MEL-14) were purchased from PharMingen (San Diego, Calif.) and used according to manufacturer's recommendations. Cells were analyzed using a FACSCalibur instrument (Becton Dickinson, San Jose, Calif.) and CellQuest software. For intracellular stain cells were first stained for CD4 and CD8, fixed in 2% paraformaldehyde, permeabilized in 0.1% Tween-20 and stained with anti-bcl-2 antibody (Pharmingen) according to manufacturer instruction.
(§2) Peptide injections and surgical procedures. TCR^TgTCRα^− and TCR^TgTCRαH2-M^−Ii^− were injected i.p. with agonist and control peptides dissolved in PBS. After indicated time mice were sacrificed, thymus and lymph nodes were collected and single cell suspensions were prepared. Pups were injected with 2 μg of peptide subcutaneously 12-24 hours after birth and thymi were transplanted into recipient mice 24 hours after injection. 5-8 week old TCR^TgTCRα^− H2-M^−Ii^− mice were used for thymectomy or as thymic transplant recipients. Surgical procedures were performed as described (Coligan et al., 1997). Mice were handled according with the institutional guidance.

[2] = system: TCR^TgTCRα^− lymph node cells; experiment: Proliferation of TCR transgenic lymph node cells stimulated with agonist peptides ([3H]thymidine incorporation); assay type: cell-based, mouse; details: for recognition by the transgenic TCR / stimulation of transgenic cells: peptides presented by irradiated C57BL6 splenocytes; for agonist potency / agonist properties: in vitro stimulation of transgenic T cells
Protocol: Antigen response of TCR transgenic cells. Proliferation of lymph node cells isolated from TCR^TgTCRα^−and TCR^TgTCRα^−2-M^−Ii^− mice injected with the selecting peptide was measured in response to antigen. Response of the TCR^TgTCRα^− lymph node cells to different agonist peptides was measured by proliferation assay in a 96-well plate. 10^5 responder cells were stimulated with peptides presented by 5×10^5 irradiated C57BL6 splenocytes. Agonist peptides were used at concentrations of 0.01, 0.1, 0.5, 1.0, 2.5, 5.0, 10.0 and 20.0 μM. After 3 days cells were pulsed with 1 μCi of [^3H]thymidine added to each well and after 18 hours thymidine incorporation was measured. The sequences of peptides used were: PCC50V (AEGFSYTVANKNKGIT), PCC50L (AEGFSYTLANKNKGIT), PCC50V54A (AEGFSYTVANKAKGIT), PCC46A49A50V54A (AEGASYAVANKAKGIT), PCC50F54A (AEGFSYTFANKAKGIT), neutral ceramidase (AGFFQYTLYILASEG) and IgGVH (NADFKTPATLTVDKA). All peptides were synthesized by FMOC (fluorenyl methoxycarbonyl) chemistry and purified by reversed-phase high-performance liquid chromatography. To compare the antigenic response of CD4^+ TCR Tg cells lymph node cells were collected from TCR^TgTCRα^− and TCR^TgTCRα^−H2-M^−Ii^− mice two weeks after peptide injection. Single cell suspensions were prepared and CD4^+ cells were sorted using magnetic beads coated with anti CD4 antibodies (MACS). Purity of sorted cells exceeded 85%. 2×10^4 of purified CD4^+ cells were used in proliferation assay. Cells were stimulated with increasing concentrations of agonist peptides presented by APCs from wild type or H2-M^−Ii^− mice. IgGVH derived peptide (20 μM) was used as a negative control. Peptides were presented by irradiated splenocytes from a C57BL6 mouse. Proliferation was measured after 3 days by thymidine incorporation by pulsing cells with 1 μCi of [^3H] thymidine for 18 hours. Antagonism assay was done by prepulsing 5×10^5 antigen-presenting cells per well for 2 hr. with 5 μM of the antigenic peptide PCC50V54A, washing, and then exposing them to varying concentrations of peptide analogs with 2×10^4 purified CD4^+ TCR^Tg lymphocytes as responder cells (Lyons et al., 1996). For antagonism assays the percent of proliferation inhibition was calculated as 100-100*(thymidine incorporation in the presence of antagonist/thymidine incorporation in the absence of antagonist) (Lyons et al., 1996).

transgenic thymocytes = experiment: Negative selection of transgenic thymocytes after i.p. peptide injection into TCR^TgTCRα^− mice (wild type A^b); assay type: in vivo, mouse; details: 24 hours; for negative selection / deletion of transgenic thymocytes: 200 μg/mouse i.p.
Protocol: as §1, §2
Characterization of peptide agonists for the PCC specific transgenic αβTCR. To examine the role of peptides during positive selection in vivo, the inventors generated transgenic mice expressing class II restricted TCR specific for analogs of a pigeon cytochrome C peptide PCC(43-58) presented by the A molecule (Kraj et al., 2001). This receptor recognizes analogs of PCC(43-58) in which aspartic acid in position 50 is replaced by amino acids with neutral/hydrophobic (PCC50V, PCC50V54A, PCC46A49A50V54A, PCC50L, PCC50F) side chains (FIG. 6 and FIG. 9). The TCR transgenic mice were backcrossed to C57BL6 TCRα^− knockout mice so that almost all T cells expressing transgenic TCR become CD4^+ T cells (FIG. 4A and FIG. 10A). Initially, the inventors examined the capacity of agonist peptides to induce negative selection of transgenic T cells.

lymph node cells = experiment: Repopulation of peripheral lymph nodes in peptide-injected TCR^TgTCRα^−H2-M^−Ii^− mice; assay type: in vivo, mouse; details: for percentage of CD4^+ positive cells (lymph node): analyzed 12 days after injection
Protocol: as §1, §2

[3] = system: peptide selected CD4^+ cells; experiment: Antigen response (proliferation) of lymph node CD4^+ cells from peptide-injected TCR^TgTCRα^−H2-M^−Ii^− mice; assay type: cell-based, mouse
Protocol: Antigen response of TCR transgenic cells. Proliferation of lymph node cells isolated from TCR^TgTCRα^−and TCR^TgTCRα^−2-M^−Ii^− mice injected with the selecting peptide was measured in response to antigen. Response of the TCR^TgTCRα^− lymph node cells to different agonist peptides was measured by proliferation assay in a 96-well plate. 10^5 responder cells were stimulated with peptides presented by 5×10^5 irradiated C57BL6 splenocytes. Agonist peptides were used at concentrations of 0.01, 0.1, 0.5, 1.0, 2.5, 5.0, 10.0 and 20.0 μM. After 3 days cells were pulsed with 1 μCi of [^3H]thymidine added to each well and after 18 hours thymidine incorporation was measured. The sequences of peptides used were: PCC50V (AEGFSYTVANKNKGIT), PCC50L (AEGFSYTLANKNKGIT), PCC50V54A (AEGFSYTVANKAKGIT), PCC46A49A50V54A (AEGASYAVANKAKGIT), PCC50F54A (AEGFSYTFANKAKGIT), neutral ceramidase (AGFFQYTLYILASEG) and IgGVH (NADFKTPATLTVDKA). […] Proliferation was measured after 3 days by thymidine incorporation by pulsing cells with 1 μCi of [^3H] thymidine for 18 hours. […] For antagonism assays the percent of proliferation inhibition was calculated as 100-100*(thymidine incorporation in the presence of antagonist/thymidine incorporation in the absence of antagonist) (Lyons et al., 1996).

[4] = system: OT-II transgenic thymocytes; experiment: Selection of OT-II transgenic thymocytes in OT-II TCRα^−→TCRα^−H2M^−Ii^− chimeras after peptide injection; assay type: in vivo, mouse
Text: OT-II agonist peptide may be used for positive selection of transgenic CD4^+ cells. Injection of a low dose of agonist peptides restores positive selection of OT-II transgenic CD4^+ T cells in […] →TCRα^−2-M^−Ii^− chimeras. OT-II transgenic mice (C57BL/6TgN(TcrOva)) express a Class II restricted T cell receptor for ovalbumin residues 323-339 in the context of H-2^b. To determine if the experimental approach can be applied to other transgenic CD4^+ T cells, radiation chimeras were generated where TCRα^−H2-H2-M^−Ii^− mice were lethally irradiated and reconstituted with fetal liver from OT-II^TgTCRα^− mice. In these chimeras the development of OT-II^TgTCRα^− thymocytes is arrested at the CD4^+CD8^+ stage due to the lack of endogenous selecting peptides. After 8 weeks chimeras were injected once with different doses of the agonist Ova(323-339) peptide, which is a peptide present in the ovalbumin protein.

CC[C@H](C)[C@H](NC(=O)CNC(=O)[C@H](CCCCN)NC(=O)[C@H](CC(N)=O)NC(=O)[C@H](CCCCN)NC(=O)[C@H](CC(N)=O)NC(=O)[C@H](C)NC(=O)[C@H](CCC(=O)O)NC(=O)[C@@H](NC(=O)[C@H](Cc1ccc(O)cc1)NC(=O)[C@H](CO)NC(=O)[C@H](Cc1ccccc1)NC(=O)CNC(=O)[C@H](CCC(=O)O)NC(=O)[C@H](C)N)[C@@H](C)O)C(=O)N[C@H](C(=O)O)[C@@H](C)O [PCC50E] (H-AEGFSYTEANKNKGIT-OH)
number of CD4^+ thymocytes positively selected by PCC50V54A on co-injection of antagonist ([1]; 3 μg antagonist + 3 μg PCC50V54A, four days later): significantly reduced

AEGASYAVANKAKGIT [PCC46A49A50V54A, analog of PCC(43-58); agonist]
recognition by the transgenic TCR / stimulation of transgenic cells [2]: recognizes | positive selection of transgenic thymocytes [1]: restored positive selection

AEGFSYTFANKAKGIT [PCC50F54A, analog of PCC(43-58); agonist]
recognition by the transgenic TCR / stimulation of transgenic cells [2]: stimulate | positive selection of transgenic thymocytes [1]: restored positive selection

AEGFSYTLANKNKGIT [PCC50L, analog of PCC(43-58)]
agonist potency / agonist properties [2]: Strong agonists | recognition by the transgenic TCR / stimulation of transgenic cells [2]: recognizes; also recorded: stimulate | negative selection / deletion of transgenic thymocytes (transgenic thymocytes): induced profound negative selection | positive selection of transgenic thymocytes [1]: restored positive selection

AEGFSYTVANKNKGIT [PCC50V, analog of PCC(43-58)]
agonist potency / agonist properties [2]: moderate agonist | recognition by the transgenic TCR / stimulation of transgenic cells [2]: recognizes; also recorded: stimulate | negative selection of transgenic thymocytes (transgenic thymocytes; 20 μg i.p., thymus cellularity, annexin V, TUNNEL): did not induce negative selection | negative selection / deletion of transgenic thymocytes (transgenic thymocytes): induced only marginal deletion; also recorded: induced only limited deletion | positive selection of transgenic thymocytes [1]: restored positive selection

AGFFQYTLYILASEG [neutral ceramidase]
agonist potency / agonist properties [2]: weak agonist | positive selection of transgenic CD4^+ thymocytes ([1]; 50 μg i.p.): weak positive selection; also recorded: mediates positive selection | percentage of CD4^+ single positive cells (thymus) ([1]; 50 μg i.p.): 1.7±0.6 percentage | CD4^+ cells in peripheral lymph nodes (lymph node cells; after i.p. injection, about two weeks): appeatence of CD4^+ lymphocytes in the peripheral lymph nodes | percentage of CD4^+ positive cells (lymph node) (lymph node cells): 7.6±1.8 percentage | response of peptide selected CD4^+ cells to agonist peptides in vitro [3]: weakly proliferated; also recorded: respond in vitro

NADFKTPATLTVDKA [IgGVH, reference compound]
percentage of CD4^+ single positive cells (thymus) ([1]; 50 μg i.p.): 0.8±0.4 percentage | effect on thymic selection [1]: had no effect on thymic selection | percentage of CD4^+ positive cells (lymph node) (lymph node cells): 2.4±0.8 percentage

Ova(323-339): peptide present in the ovalbumin protein; agonist for the OT-II TCR (KISQAVHAAHAEINEAG; UniProt P01012 323-339, looked up, fragment)
effect on thymic selection [1]: had no effect on thymic selection | negative selection of transgenic thymocytes ([4]; high dose (100 μg and above)): induced negative selection | selection of CD4^+ thymocytes ([4]; low dose (5-20 μg)): induced selection of a significant number of CD4^+ thymocytes | response of selected thymocytes to selecting peptide ([4]; mouse, in vivo): continued to respond to stimulation by selecting peptide; also recorded: retain their ability to respond to selecting peptide | selection of transgenic CD4^+ thymocytes ([4]; single injection of 10 μg, 48 and 72 hours): initiates selection of transgenic CD4^+Vβ5^+ thymocytes

From patent US20030021796A1, “Method of enhancing T cell immunity by selection of antigen specific T cells” (priority 2001, published 2003)
